Measurements: patent US5081253A, “Imidazo(4,5-C)pyridines as antiosteoporotic agents” (American Home Products Corporation, priority 1990, dated 1992)

Key:
[1] = tested on: Rat Limb Bones (PTH induced bone resorption); assay: Bone Resorption Assay: 45Ca Release from Rat Limb Bones (PTH Induced); format: cell-based, rat (Sprague-Dawley CD)
Experimental: The purpose of this assay is to identify compounds that inhibit basal or stimulated bone resorption in culture.
The ability of 2-substituted-imidazo[4,5-c]pyridines to modify the process of bone resorption was evaluated essentially as described by L.G. Raisz, Bone resorption in tissue culture. Factors influencing the response to parathyroid hormone.
Timed pregnant Sprague-Dawley CD® rats (Charles River) are administered 100 μCi ^45 CaCl2 (NEN calcium -45 NEZ-013) in 100 μL of 0.9% saline, subcutaneously, on day 18 of gestation. The rats are sacrificed the following day by CO2 asphyxiation. The fetuses are removed and the right forelimbs excised and placed in a Petri dish containing ice cold explant medium consisting of modified BGJb -Fitton Jackson media (custom formulation, Gibco No. 78-0088) adjusted to pH 7.3 to which 10 mM TES is added. […] Under a dissecting microscope, the bones are gently cleaned of adherent tissue and the cartilaginous ends removed. Incubation and drug treatment. […] The preincubation medium is brought to 37° C. prior to transfer of bones. The preincubation medium consists of the modified BGJb medium (with salts and glucose as above), pH 7.3, containing 29 mM NaHCO3. […] For compounds that require nonaqueous solvents, dilutions are made from the appropriate stock solution with medium. In these instances, basal and bone resorption stimulated controls exposed to an equivalent concentration of the vehicle are included. […] The right ulna and radius from each fetus are used. Both bones are subjected to the same treatment and each treatment group consists of bones from 4 or more fetuses. Treatments are randomly assigned using a preclinical statistics program (PS-ALLOC). After a 48 hour incubation at 37° C. in 5% CO2, the bones are removed from the medium and extracted in 0.5 mL of 0.1N HCl for 1 or more days. Duplicate 150 μL aliquots of the incubation medium and the bone extract are analyzed for ^45 Ca radioactivity in 5 mL of liquid scintillation cocktail.
The percentage of bone ^45 Ca released into the medium is determined as follows: [formula] […]

[2] = tested on: osteopenia induced by denervation of the sciatic nerve in rats; assay: Denervation Induced Osteopenia in Rats; format: in vivo, rat (female Sprague Dawley CD)
Text: The purpose of this assay is to evaluate the effect, in rats, of agents on the reduction in bone mass (osteopenia) induced by immobilization resulting from surgical severance (denervation) of the sciatic nerve.
The animals are housed in plastic cages (4 or 5 rats/cage) with food (rat purina 500 chow) and water ad libitum; 14/10 day/night cycle.
After one week of in-house acclimatization, the animals are randomly divided into groups of 6 to 10 rats/group. Each rat is weighed, anesthetized with an intraperitoneal administration of 100 mg/kg ketamine (Bristol Laboratories, Syracuse, N.Y.) and 0.75 mg/kg Acepromazine (Aveco, Ft. Dodge, Iowa). The left hind limb is shaved and denervated by making a lateral incision parallel to the femur and by surgically removing half of a centimeter of the sciatic nerve adjacent to caudofemoralis and adductor brevis muscles. The incision is closed with wound clips. After surgery, the rats are housed in cages with absorbent bedding to minimize additional trauma to the immobilized limb. A 24 hour post-surgery recovery period is allowed before the initiation of the drug treatment.
The concentration of the drug stock is calculated to be delivered in a volume of 0.1 mL/100 gram body weight. The drug solution or a uniform suspension is prepared in 1% Tween 80 in normal saline. The drugs are administered via oral or parenteral routes daily (five times a week) for four weeks.
A sequential triple labeling of mineralized tissue is employed to determine the osseous changes (especially the bone formation) and the mineralization rates. Each animal is administered 90 mg/kg Xylenol orange (Fisher Scientific Company), S.C., 15 mg/kg Calcein (Sigma Chemical Company), S.C. and 15 mg/kg Demeclocycline (Sigma Chemical Company), i.p., approximately 21 days, 10 days and 2 days prior to the termination of the study, respectively.
At the end of the fourth week, each rat is weighed, anesthetized with an intraperitoneal administration of 100 mg/kg ketamine with 0.75 mg/kg Acepromazine and approximately 4 mL of blood collected via cardiac puncture. The anesthetized rats are euthanized by exposure to carbon dioxide. The femora and tibiae from both limbs are dissected free of soft tissue. (i) Femora are ashed at ~1100° C. for 16 hours using a muffle furnace. --(ii) Proximal tibia are fixed, dehydrated and embedded undecalcified in a methyl methacrylate-glycol methacrylate mixture. Longitudinal tissue sections (10 microns) are prepared on a Polycut S microtome (Reichert). Staining is performed on free-floating sections using a modified Goldner's stain, which are then mounted and coverslipped.
Cancellous bone content in the proximal tibia is quantified (as two dimensional bone mineral area [B.Ar]) with an image analysis processing device (software developed by Drexel University).
The areas of the tibia selected for cancellous bone content evaluation are the primary and secondary spongiosa. To select and standardize this area for evaluation, the epiphyseal growth plate-metaphyseal junction is oriented parallel to the abscissa of the digitizing screen. Bone elements 1.7 mm (secondary spongiosa) and 0.2 mm (primary spongiosa) from the growth plate and equidistant from the flanking cortical elements are then quantified as described above. The total area evaluated is 2.30 mm wide and 1.45 mm deep, constituting a 3.34 mm^2 area.
Body weight, femur mass (dried or ashed) and trabecular (cancellous) bone mineral area (B.Ar) are determined.
The difference (both absolute and percent change) in femur mass and bone mineral area between intact (control) and denervated limbs of a treatment group are compared with that for the vehicle group using a one-way analysis of variance with Dunnett's test, or other multiple comparison methods.
The results are reported in Table I and II under the heading In Vivo.

[3] = Table I, concentration not given
[4] = Table II, 25 mg/kg, route not given

COc1ccccc1C[S+]([O-])c1nc2cnccc2[nH]1 (stereo not drawn) [Example 43, 2-[[(2-Methoxyphenyl)methyl]sulfinyl]-1H-imidazo[4,5-c]pyridine]
Inhibition of Bone Resorption, PTH Induced ([1]; Table I, 10 μg/mL): Active

COc1cccc(C[S+]([O-])c2nc3cnccc3[nH]2)c1 (single isomer, unassigned) [Example 57]
Inhibition of Bone Resorption, PTH Induced [1, 3]: Active

Br.Br.Oc1cccc(CSc2nc3cnccc3[nH]2)c1 [Example 54, 3-[[(1H-Imidazo[4,5-c]pyridin-2-yl)thio]methyl]phenol Dihydrobromide]
Inhibition of Bone Resorption, In Vivo [2, 4]: Inactive | Inhibition of Bone Resorption, PTH Induced ([1]; Table II, 10 μg/mL): Inactive

N#Cc1ccccc1C[S+]([O-])c1nc2cnccc2[nH]1 (stereo not drawn) [Example 39, 2-[[(1H-Imidazo[4,5-c]pyridin-2-yl)sulfinyl]methyl]benzonitrile]
Inhibition of Bone Resorption, In Vivo ([2]; po, 672 h): Inactive | Inhibition of Bone Resorption, PTH Induced ([1]; Table I, 10 μg/mL): Active

2-[[(3,5-Dimethoxyphenyl)methyl]thio]-1H-imidazo[4,5-c]pyridine [Example 44]
Inhibition of Bone Resorption, In Vivo [2, 4]: Inactive | Inhibition of Bone Resorption, PTH Induced ([1]; Table II, 10 μg/mL): Active

O=[N+]([O-])c1cccc(C[S+]([O-])c2nc3cnccc3[nH]2)c1 (stereo not drawn) [Example 49, 2-[[(3-Nitrophenyl)methyl]sulfinyl]-1H-imidazo[4,5-c]pyridine 0.15 Dimethylformamide]
Inhibition of Bone Resorption, In Vivo ([2]; po, 672 h): Inactive

COc1cccc(CCSc2nc3cnccc3[nH]2)c1 [Example 16, 2-[[(3-Methoxyphenyl)ethyl]thio]-1H-imidazo[4,5-c]pyridine]
Inhibition of Bone Resorption, In Vivo ([2]; Table II, 25 mg/kg, p.o.): Inactive | Inhibition of Bone Resorption, PTH Induced ([1]; Table II, 10 μg/mL): Inactive

COc1cc(C[S+]([O-])c2nc3cnccc3[nH]2)cc(OC)c1 (stereo not drawn) [Example 45, 2-[[(3,5-Dimethoxyphenyl)methyl]sulfinyl]-1H-imidazo[4,5-c]pyridine]
Inhibition of Bone Resorption, In Vivo ([2]; po, 672 h): Inactive | Inhibition of Bone Resorption, PTH Induced ([1]; Table I, 10 μg/mL): Active

Clc1cc2c(cc1CSc1nc3cnccc3[nH]1)OCO2 [Example 24, 2-[[(6-Chloro-1,3-benzodioxol-5-yl)methyl]thio]-1H-imidazo[4,5-c]pyridine]
Inhibition of Bone Resorption, PTH Induced ([1]; Table II, 10 μg/mL): Active

COc1cccc(C[S+]([O-])c2nc3cnccc3[nH]2)c1 (single isomer, unassigned) [Example 58, [R-(-)]-2-[[(3-Methoxyphenyl)methyl]sulfinyl]-1H-imidazo[4,5-c]pyridine One Quarter Hydrate]
Inhibition of Bone Resorption, PTH Induced [1, 3]: Active

CCOc1cccc(CSc2nc3cnccc3[nH]2)c1 [Example 52, 2-[[(3-Ethoxyphenyl)methyl]thio]-1H-imidazo[4,5-c]pyridine]
Inhibition of Bone Resorption, In Vivo [2, 4]: Inactive | Inhibition of Bone Resorption, PTH Induced ([1]; Table II, 10 μg/mL): Inactive

N#Cc1ccccc1CSc1nc2cnccc2[nH]1 [Example 38, 2-[(1H-Imidazo[4,5-c]pyridin-2-ylthio)methyl]benzonitrile]
Inhibition of Bone Resorption, In Vivo [2, 4]: Inactive | Inhibition of Bone Resorption, PTH Induced ([1]; Table II, 10 μg/mL): Inactive

[O-][S+](Cc1ccccc1F)c1nc2cnccc2[nH]1 (stereo not drawn) [Example 41, 2-[[(2-Fluorophenyl)methyl]sulfinyl]-1H-imidazo[4,5-c]pyridine Quarter Hydrate]
Inhibition of Bone Resorption, In Vivo ([2]; po, 672 h): Inactive | Inhibition of Bone Resorption, PTH Induced ([1]; Table I, 10 μg/mL): Active

Fc1ccccc1CSc1nc2cnccc2[nH]1 [Example 40, 2-[[(2-Fluorophenyl)methyl]thio]-1H-imidazo[4,5-c]pyridine]
Inhibition of Bone Resorption, In Vivo [2, 4]: Inactive | Inhibition of Bone Resorption, PTH Induced ([1]; Table II, 10 μg/mL): Active

CCOc1cccc(C[S+]([O-])c2nc3cnccc3[nH]2)c1 (stereo not drawn) [Example 53, 2-[[(3-Ethoxyphenyl)methyl]sulfinyl]-1H-imidazo[4,5-c]pyridine One Third Hydrate]
Inhibition of Bone Resorption, PTH Induced ([1]; Table I, 10 μg/mL): Active

[O-][S+](Cc1cccc(Oc2ccccc2)c1)c1nc2cnccc2[nH]1 (stereo not drawn) [Example 47, 2-[[(3-Phenoxyphenyl)methyl]sulfinyl]-1H-imidazo[4,5-c]pyridine]
Inhibition of Bone Resorption, In Vivo ([2]; po, 672 h): Inactive | Inhibition of Bone Resorption, PTH Induced ([1]; Table I, 10 μg/mL): Active

O=[N+]([O-])c1cccc(CSc2nc3cnccc3[nH]2)c1 [Example 48, 2-[[(3-Nitrophenyl)methyl]thio]-1H-imidazo[4,5-c]pyridine]
Inhibition of Bone Resorption, In Vivo [2, 4]: Inactive

c1ccc(Oc2cccc(CSc3nc4cnccc4[nH]3)c2)cc1 [Example 46, 2-[[(3-Phenoxyphenyl)methyl]thio]-1H-imidazo[4,5-c]pyridine]
Inhibition of Bone Resorption, In Vivo [2, 4]: Inactive | Inhibition of Bone Resorption, PTH Induced ([1]; Table II, 10 μg/mL): Inactive

COc1ccc(C[S+]([O-])c2nc3cnccc3[nH]2)cc1C (stereo not drawn) [Example 51, 2-[[(4-Methoxy-3-methylphenyl)methyl]sulfinyl]-1H-imidazo[4,5-c]pyridine]
Inhibition of Bone Resorption, In Vivo ([2]; po, 672 h): Inactive

COc1cc(C[S+]([O-])c2nc3cnccc3[nH]2)cc(OC)c1OC (stereo not drawn) [Example 29, 2-[[(3,4,5-Trimethoxyphenyl)methyl]sulfinyl]-1H-imidazo[4,5-c]pyridine-One Third Hydrate]
Inhibition of Bone Resorption, In Vivo ([2]; po, 672 h): Inactive | Inhibition of Bone Resorption, PTH Induced [1, 3]: Inactive

COc1ccc(CSc2nc3cnccc3[nH]2)cc1C [Example 50, 2-[[(4-Methoxy-3-methylphenyl)methyl]thio]-1H-imidazo[4,5-c]pyridine]
Inhibition of Bone Resorption, In Vivo [2, 4]: Inactive

COc1ccccc1CSc1nc2cnccc2[nH]1 [Example 42, 2-[[(2-Methoxyphenyl)methyl]thio]-1H-imidazo[4,5-c]pyridine]
Inhibition of Bone Resorption, PTH Induced ([1]; Table II, 10 μg/mL): Active

COc1ccc(C[S+]([O-])c2nc3cnccc3[nH]2)cc1 (stereo not drawn) [Example 27, 2-[[(4-Methoxyphenyl)methyl]sulfinyl]-1H-imidazo[4,5-c]-pyridine-One Third Hydrate]
Inhibition of Bone Resorption, In Vivo ([2]; po, 672 h): Inactive | Inhibition of Bone Resorption, PTH Induced ([1]; Table I, 10 μg/mL): Active
